Earlier results, collected in US20040248933A1, “Use of 4-phenyl-substituted tetrahydroisoquinolines in the treatment of pain, migraine headaches and urinary incontinence” (priority 2002, published 2004).

Test system: nocturnal enuresis patients
Settings: patients with nocturnal enuresis following treatment

CN(C)CCCN1c2ccccc2CCc2ccccc21 [imipramine, Imipramine]
Enuresis cured, share of patients: over 50%
Improvements seen, further share of patients (in addition to those cured): 15-20%
